This is an account of results in ChEMBL document CHEMBL3880395, “Novel compounds and methods of use thereof” (2003).

For series [1], the species on record is Rattus norvegicus. The experiment in a line: Antiangiogenic activity in Sprague-Dawley rat thoracic aortic rings assessed as inhibition of capillary like tube formation at 0.3 ug/ml for 5 days by MTT/MTS assay. Format: functional. The conditions noted are these: Thoracic aorta.
The species named for series [2] is Rattus norvegicus. Description: Antiangiogenic activity in Sprague-Dawley rat thoracic aortic rings assessed as inhibition of capillary like tube formation at 1 ug/ml for 5 days by MTT/MTS assay. The class given is functional. The conditions noted are these: Thoracic aorta. In general terms: Formazan colour is commonly taken as a measure of viable cells.
For the next series, the system named is P388. Description: Anticancer activity against mouse P388 cells implanted in po dosed DBA/2J mouse assessed as increase in life span administered daily for 4 days measured twice daily during compound dosing. The class given is functional, organism-based.
Series [3] can be described thus: Toxicity in DBA/2J mouse implanted with mouse P388 cells assessed as body weight loss at 25 to 400 mg/kg, po administered daily for 4 days measured twice daily during compound dosing. Format: organism-based. Conditions: in vivo, 96 h.
Series [4] in a line: Cytotoxicity against human HONE1 cells assessed as reduction in cell growth after 72 hrs by MTS assay. Format: functional, cell-based. The conditions noted are these: HONE1, 72 h.
Series [5] is described as follows: Anticancer activity against mouse P388 cells implanted in DBA/2J mouse assessed as increase in life span at 200 mg/kg, po administered daily for 4 days measured twice daily during compound dosing. Format: functional. The conditions noted are these: 96 h.
Series [6] can be described thus: Toxicity in athymic nude mouse xenografted in human SW480 cells xenografted assessed as body weight loss at 200 mg/kg, administered via oral gavage daily for 6 weeks measured twice per every week for 70 days. The class given is organism-based. The conditions noted are these: in vivo, 1680 h.
The nature of series [7]: Toxicity in DBA/2J mouse implanted with mouse P388 cells assessed as body weight loss at 5 to 400 mg/kg, po administered daily for 4 days measured twice daily during compound dosing. Format: organism-based. The conditions noted are these: in vivo, 96 h.

Molecules are shown by their SMILES. Calls of active or inactive are those of the source. The calls are words filed in the database; no cut-off is given here.

In the case of `Cc1cc(NC(=O)C(=O)c2cn(Cc3ccno3)c3ccccc23)sn1`, the inhibition result in the series filed under Rattus norvegicus [1] is “Active”.
For the compound `Cc1cc(NC(=O)C(=O)c2cn(Cc3cc(C(C)C)no3)c3ccccc23)sn1`, the inhibition entry in the series filed under Rattus norvegicus [1] was “Active”.
For `Cc1cc(NC(=O)C(=O)c2cn(Cc3cccs3)c3ccccc23)sn1`, the inhibition entry in the series filed under Rattus norvegicus [2] is “Active”.
Regarding `Cc1cc(Cn2cc(C(=O)C(=O)Nc3ccc4ncccc4c3)c3ccccc32)on1`, the inhibition entry in the series listed under Rattus norvegicus [1] is “Active”.
In general, ILS refers to how much longer treated animals lived than controls. In the case of `O=C(Nc1ccc2ncccc2c1)C(=O)c1cn(Cc2ccsc2)c2ccccc12`, the ILS entry with P388 is “Dose-dependent effect”. The Activity entry in series [3] is recorded as “Non-Toxic”.
For orientation: IC50 means the midpoint of a concentration-inhibition curve. In the case of `Cc1cc(Cn2cc(C(=O)C(=O)Nc3cc(C)ns3)c3ccccc32)on1`, in the series with P388, the ILS entry is “Dose-dependent effect”. Besides, the IC50 in series [4] fell in the range of 3 to 4 nM. Also, the inhibition entry in the series filed under Rattus norvegicus [1] was “Active”. In series [5], the ILS at 200 mg/kg is 100%. Further, the Activity entry in series [6] and in series [7] was “Non-Toxic” in each case.
As for `O=C(Nc1ccc2ncccc2c1)C(=O)c1cn(Cc2cscn2)c2ccccc12`, the inhibition entry in the series filed under Rattus norvegicus [1] is “Active”.
For the compound `Cc1cc(NC(=O)C(=O)c2cn(Cc3ccco3)c3ccccc23)sn1`, the inhibition entry in the series filed under Rattus norvegicus [1] was “Active”.
Still for that read-out and setting: next, `CCc1cc(Cn2cc(C(=O)C(=O)Nc3cc(C)ns3)c3ccccc32)on1`: “Active”; `O=C(Nc1ccc2ncccc2c1)C(=O)c1cn(Cc2ccco2)c2ccccc12`: “Active”.
Consider `Cc1cc(NC(=O)C(=O)c2cn(Cc3ccc(C#N)cc3)c3ccccc23)sn1`, for which the ILS result in the series on P388 is “Dose-dependent effect”. Also, the inhibition entry in the series filed under Rattus norvegicus [1] is “Active”. Moreover, the Activity result in series [3] was “Non-Toxic”.
Take `N#Cc1ccc(Cn2cc(C(=O)C(=O)Nc3ccc4ncccc4c3)c3ccccc32)cc1`: in the series filed under Rattus norvegicus [1], the inhibition result was “Active”.
Regarding `O=C(Nc1ccncc1)C(=O)c1cn(Cc2ccc(Cl)cc2)c2ccccc12`, the inhibition result in the series listed under Rattus norvegicus [2] was “Active”.
As to `Cc1cc(NC(=O)C(=O)c2cn(Cc3ccsc3)c3ccccc23)sn1`, in the series filed under Rattus norvegicus [1], the inhibition entry is “Active”.
With `N#Cc1ccc(Cn2cc(C(=O)C(=O)Nc3ccc(I)cc3)c3ccccc32)cc1`, in the series filed under Rattus norvegicus [1], the inhibition entry was “Active”.
As for `COc1ccc(NC(=O)C(=O)c2cn(Cc3ccccc3C#N)c3ccccc23)cc1`, the inhibition result in the series filed under Rattus norvegicus [1] is “Active”.
Take `Cc1cc(Cn2cc(C(=O)C(=O)Nc3ccc(Br)cc3)c3ccccc32)on1`: in the series listed under Rattus norvegicus [1], the inhibition result is “Active”.
